In patent US20260035369A1, “VINCAMINE DERIVATIVES, PREPARATION METHOD THEREFOR, AND USE THEREOF” (SOUTHWEST UNIVERSITY, priority 2023, published 2026):

System: bEnd.3 cells
Experiment: Cellular ROS levels (DCFH-DA) by single cell analyzer
Assay type: cell-based
Details: 2 hours, FIG. 10
Experimental: (10) The effect of lipid nanoparticles formed from the vincamine derivative (compound 2 (A5-B2-C6) as an example) on cellular ROS levels was detected using a single cell analyzer:
To detect cellular oxidative stress and intracellular reactive oxygen species (ROS) levels, a dichlorodihydrofluorescein diacetate (DCFH-DA) reactive oxygen species assay kit was used to detect the green fluorescence signal of ROS. bEnd.3 cells were seeded in cell culture dishes (50000 cells per dish) and cultured in 1 mL of culture medium for 12 hours. The culture medium in the wells was discarded and replaced with fresh complete medium. Lipid nanoparticles formed from the vincamine derivative (compound 2 (A5-B2-C6)) were added to the cells, and the cells were incubated in the dark at 37° C. in a 5% CO2 atmosphere for 2 hours. The cells in each group were incubated in PBS buffer containing […] DCFH-DA at 37° C. for 30 min. The cells were then washed three times in PBS buffer solution containing 0.1% BSA and fixed on glass slides. ROS levels were detected at the single-cell level using a fiber optic probe with a tip of approximately […]. The tip was inserted into the cells fixed in PBS, and photon counts were continuously detected and calculated within 150 s.

Row | SMILES | cellular ROS levels
1 | CCCCCCCC/C=C\CCCCCCCC(=O)OCC(C[N+](C)(C)C)OC(=O)CCCCCCC/C=C\CCCCCCCC (centres unmarked) [DOTAP] | high ROS levels
2 | CCCCC/C=C\C/C=C\CCCCCCCCC(CCCCCCCC/C=C\C/C=C\CCCCC)OC(=O)CCCN(C)C [Dlin-MC3-DMA] | high ROS levels
